Test results from article PMC5610941 (Journal of molecular biology, 2017).

Biological target: HtpG (Escherichia coli, UniProt P0A6Z3)
Experiment: SAXS radius of gyration titration, closed-state accumulation
Format: binding

HtpG, sequence (P0A6Z3 whole entry): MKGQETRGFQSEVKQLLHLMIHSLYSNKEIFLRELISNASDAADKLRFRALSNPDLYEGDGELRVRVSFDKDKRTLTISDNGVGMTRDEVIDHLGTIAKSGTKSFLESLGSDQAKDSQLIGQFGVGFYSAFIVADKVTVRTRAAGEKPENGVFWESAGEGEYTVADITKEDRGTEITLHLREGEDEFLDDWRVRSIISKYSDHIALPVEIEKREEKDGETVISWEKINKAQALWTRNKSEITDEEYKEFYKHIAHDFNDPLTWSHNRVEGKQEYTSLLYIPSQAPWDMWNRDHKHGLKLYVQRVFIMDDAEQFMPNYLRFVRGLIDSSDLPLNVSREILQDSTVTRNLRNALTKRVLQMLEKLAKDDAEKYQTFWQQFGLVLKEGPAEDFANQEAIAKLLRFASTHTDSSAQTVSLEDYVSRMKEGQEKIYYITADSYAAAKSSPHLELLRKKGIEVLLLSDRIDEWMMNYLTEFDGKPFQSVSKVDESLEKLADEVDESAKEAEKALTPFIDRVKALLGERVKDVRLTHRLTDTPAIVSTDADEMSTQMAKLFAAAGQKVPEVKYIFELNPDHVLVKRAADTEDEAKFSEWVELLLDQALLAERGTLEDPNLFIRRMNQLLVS

- Kd: 12 to 15 µM
SMILES: Nc1ncnc2c1ncn2[C@@H]1O[C@H](COP(=O)(O)OP(=O)(O)NP(=O)(O)O)[C@@H](O)[C@H]1O [AMPPNP]
